Source: patent publication EP0552142B2, “T CELL RECEPTOR PEPTIDES AS THERAPEUTICS FOR AUTOIMMUNE AND MALIGNANT DISEASE” (priority 1989, dated 1991)
Ends that are not written are not given here.

Tested on: EAE
Design: species or system New Zealand white rabbits
Settings: rabbit, in vivo
Method: The emulsion was injected SC in multiple sites in the dorsal area of the neck and the tail. Rabbits were immunized either with the free peptide or with peptide conjugated to KLH. […] All rabbits were bled via the ear vein after they were placed in restraining cages and tranquilized with ace-promozine. To prevent hypovolemia, the amount of blood removed was replaced with sterile saline. Sera from individual rats or rabbits were prepared from clotted blood by centrifugation. All sera were decomplemented for 30 minutes at 56°C and frozen in small aliquots to which sodium azide was added.

DMGHGLRLIHYSYDVNSTEKG [TCR Vβ8(39-59)]
Clinical Signs of EAE: None
